ChEMBL document CHEMBL5532656, “Novel ligustilide derivatives target quorum sensing system LasR/LasB and relieve inflammatory response against Pseudomonas aeruginosa infection” (Eur J Med Chem, 2024)

Assay: Inhibition of quorum sensing system in Pseudomonas aeruginosa PAO1-lasB-gfp at 10 uM relative to control

SMILES | inhibition
CCCCC1(O)C2=C(C=CCC2)C(=O)N1CCc1c[nH]c2ccc(O)cc12 (configuration not stated) | 37.7%
CCCCC1(O)C2=C(C=CCC2)C(=O)N1Cc1ccccc1C(F)(F)F (configuration not stated) | 45.1%
CCCCC1(O)C2=C(C=CCC2)C(=O)N1Cc1ccc(-c2ccccc2)cc1 (configuration not stated) | 43.8%
CCCCC1(O)C2=C(C=CCC2)C(=O)N1Cc1ccc(F)cc1 (configuration not stated) | 41.5%
CCCCC1(O)C2=C(C=CCC2)C(=O)N1CCc1c[nH]c2ccc(OC)cc12 (configuration not stated) | 30.6%
CCCCC1(O)C2=C(C=CCC2)C(=O)N1Cc1ccc(C#N)cc1 (configuration not stated) | 44.3%
CCCCC1(O)C2=C(C=CCC2)C(=O)N1Cc1ccc(OC)cc1 (configuration not stated) | 40.7%
CCCCC1(O)C2=C(C=CCC2)C(=O)N1c1ncccn1 (configuration not stated) | 35.5%
CCCCC1(O)C2=C(C=CCC2)C(=O)N1Cc1ccccc1OC (configuration not stated) | 36.3%
CCCCC1(O)C2=C(C=CCC2)C(=O)N1Cc1cccc(C(F)(F)F)c1 (configuration not stated) | 39.4%
CCCCC1(O)C2=C(C=CCC2)C(=O)N1C1CCCC1 (configuration not stated) | 16.7%
CCCCC1(O)C2=C(C=CCC2)C(=O)N1Cc1ccc(C(C)C)cc1 (configuration not stated) | 40.7%
CCCCC1(O)C2=C(C=CCC2)C(=O)N1Cc1ccc(N(C)C)cc1 (configuration not stated) | 35.3%
CCCCC1(O)C2=C(C=CCC2)C(=O)N1C1CCCCC1 (configuration not stated) | 16.4%
CCCCC1(O)C2=C(C=CCC2)C(=O)N1c1ccccc1 (configuration not stated) | 15.1%
CCCCC1(O)C2=C(C=CCC2)C(=O)N1Cc1cccc(-c2ccccc2)c1 (configuration not stated) | 32.9%
CCCCC1(O)C2=C(C=CCC2)C(=O)N1Cc1cccc(OC)c1 (configuration not stated) | 29.4%

Other lines, results leading:

inhibition | SMILES
40.5% | CCCCC1(O)C2=C(C=CCC2)C(=O)N1Cc1ccc(OCC)cc1 (configuration not stated)
41.5% | CCCCC1(O)C2=C(C=CCC2)C(=O)N1Cc1ccc(C)cc1 (configuration not stated)
18.1% | CCCCC1(O)C2=C(C=CCC2)C(=O)N1CCCCc1ccccc1 (configuration not stated)
37.6% | CCCCC1(O)C2=C(C=CCC2)C(=O)N1Cc1ccccc1Cl (configuration not stated)
41% | CCCCC1(O)C2=C(C=CCC2)C(=O)N1Cc1cccc(F)c1 (configuration not stated)
47.4% | CCCCC1(O)C2=C(C=CCC2)C(=O)N1Cc1ccc(Cl)cc1 (configuration not stated)
21.6% | CCCCN1C(=O)C2=C(CCC=C2)C1(O)CCCC (configuration not stated)
21.5% | C#CCN1C(=O)C2=C(CCC=C2)C1(O)CCCC (configuration not stated)
40.2% | CCCCC1(O)C2=C(C=CCC2)C(=O)N1Cc1ccc(O)cc1 (configuration not stated)
45.2% | CCCCC1(O)C2=C(C=CCC2)C(=O)N1Cc1ccc(Br)cc1 (configuration not stated)
40.4% | CCCCC1(O)C2=C(C=CCC2)C(=O)N1Cc1ccccc1F (configuration not stated)
21.2% | CCCCCN1C(=O)C2=C(CCC=C2)C1(O)CCCC (configuration not stated)
33.9% | CCCCC1(O)C2=C(C=CCC2)C(=O)N1Cc1ccco1 (configuration not stated)
17.4% | CCCCC1(O)C2=C(C=CCC2)C(=O)N1CC (configuration not stated)
21.1% | CCCCC1(O)C2=C(C=CCC2)C(=O)N1CCC (configuration not stated)
31.9% | CCCCC1(O)C2=C(C=CCC2)C(=O)N1Cc1cccnc1 (configuration not stated)
20.4% | CCCCC1(O)C2=C(C=CCC2)C(=O)N1C1CC1 (configuration not stated)
29.7% | CCCCC1(O)C2=C(C=CCC2)C(=O)N1Cc1cccs1 (configuration not stated)
34.2% | CCCCC1(O)C2=C(C=CCC2)C(=O)N1Cc1cccc(Cl)c1 (configuration not stated)
11.6% | CCCCC1(O)C2=C(C=CCC2)C(=O)N1CCc1ccccc1 (configuration not stated)
